# Measurements from patent US10183019B2, “Treatment of cancer with dihydropyrazino-pyrazines” (Signal Pharmaceuticals, LLC, priority 2013, dated 2019).
# Assays:
# [1] = tested on: HF2354 PDX (GBM neurosphere line HF2354); assay: Patient derived xenograft (PDX) survival study; assay type: in vivo, nude mouse; settings: HF2354 PDX in nude mice; 5 mg/kg oral gavage once a day, Monday through Friday; monotherapy
# Method: FIG. 2: Kaplan-Meier survival analysis for HF2354 PDX line (end of study). Treatment schedule for survival (Rx) and target hit (TH) are indicated.
# Immunocompromised mice (nude mouse NCRNU-M, TACONIC) were implanted with a GBM neurosphere line derived from fresh surgical specimens. The cell line was characterized as following:
# Patient derived xenograft (PDX) treatments started four weeks prior to when the first animal was expected to become symptomatic. […] Control animals were administered vehicle alone. Target hit cohorts were treated with one dose of each compound and sacrificed 2 and 24 h later (n=3/group). As necessary, fluids and supplemental food were administered to ameliorate weight loss.
# [2] = tested on: patient-derived GBM cell line 206; assay: Combination effect of Compound 1 and TMZ on cell survival (fractional product); assay type: cell-based; settings: 168 h, 7 days, read-out: % Actual inh.
# Description: (§1) TMZ is an alkylating agent that delivers a methyl group to the purine bases of DNA (O^6-guanine; N^7-guanine and N^3-adenine). The cytotoxic lesion, O^6-methylguanine (O^6-MeG), caused by TMZ can be directly removed by methylguanine methyltransferase (MGMT) via direct repair and can also activate mechanisms of mismatch repair (MMR). Futile cycles of MMR lead to the formation of double-stranded DNA breaks and activation of the DNA-PK mediated mechanisms of double-stranded break repair.
# (§2) Tumorspheres grown under tumorsphere culture conditions were harvested, dissociated into single cells, and plated at 5,000 cells/well in 96-well plates. […] When the value of the column % actual inhibition divided by % inhibition calculated based on summation is >1=synergism, ˜1=summation, <1=antagonism.
# [3] = tested on: patient-derived GBM cell line 217; assay: as above; assay type: cell-based; settings: 168 h, Cmpd 1 100 nM alone, 7 days, read-out: % Actual inh.
# Description: as §1, §2
# [4] = tested on: patient-derived GBM cell line 296; assay: Gliomasphere Cell Number Assay; assay type: cell-based; settings: cell line 296, Recurrent, MGMT status −; 50% cell numbers vs DMSO control, Day 2 to Day 9; read-out: IC50 Cell Survival
# Method: (§3) Gliomasphere Cell Number Assay. Primary patient-derived GBM tumor samples were dissociated and plated under culture conditions that produce gliomaspheres (i.e. DMEM/F12 medium supplemented with B27, 20 ng/mL bFGF, 50 ng/mL EGF, penicillin/streptomycin, L-glutamine and 5 ug/mL heparin). Cells were plated at a density of 5000 cells/well and allowed to acclimate overnight at 37° C. The Dihydropyrazino-Pyrazine Compounds were added to the cultures on Day 2 and cells were kept in culture until Day 9. On Day 9, the cells were fixed with PFA/methanol and the next day assessed for cell number, using for example, SYTO-9 fluorescent DNA dye. Plates were read 48 h later with a laser scanning imager.
# [5] = tested on: patient-derived GBM cell line 207; assay: Gliomasphere Cell Number Assay; assay type: cell-based; settings: cell line 207, Recurrent; 50% cell numbers vs DMSO control, Day 2 to Day 9; read-out: IC50 Cell Survival
# Method: as §3
# [6] = tested on: patient-derived GBM cell line 254; assay: Gliomasphere Cell Number Assay; assay type: cell-based; settings: cell line 254, Recurrent; 50% cell numbers vs DMSO control, Day 2 to Day 9; read-out: IC50 Cell Survival
# Method: as §3
# [7] = tested on: patient-derived GBM cell line 277; assay: Gliomasphere Cell Number Assay; assay type: cell-based; settings: cell line 277, Secondary/Recurrent; 50% cell numbers vs DMSO control, Day 2 to Day 9; read-out: IC50 Cell Survival
# Method: as §3
# [8] = tested on: patient-derived GBM cell line 336; assay: Gliomasphere Cell Number Assay; assay type: cell-based; settings: cell line 336, Recurrent, MGMT status +; 50% cell numbers vs DMSO control, Day 2 to Day 9; read-out: IC50 Cell Survival
# Method: as §3
# [9] = tested on: patient-derived GBM cell line 374; assay: Gliomasphere Cell Number Assay; assay type: cell-based; settings: cell line 374, Primary, MGMT status −; 50% cell numbers vs DMSO control, Day 2 to Day 9; read-out: IC50 Cell Survival
# Method: as §3
# [10] = tested on: patient-derived GBM cell line 347; assay: Gliomasphere Cell Number Assay; assay type: cell-based; settings: cell line 347, Recurrent, MGMT status −; 50% cell numbers vs DMSO control, Day 2 to Day 9; read-out: IC50 Cell Survival
# Method: as §3
# [11] = tested on: patient-derived GBM cell line 245; assay: Gliomasphere Cell Number Assay; assay type: cell-based; settings: cell line 245, Recurrent; 50% cell numbers vs DMSO control, Day 2 to Day 9; read-out: IC50 Cell Survival
# Method: as §3
# [12] = tested on: patient-derived GBM cell line 350; assay: Gliomasphere Cell Number Assay; assay type: cell-based; settings: cell line 350, Recurrent; 50% cell numbers vs DMSO control, Day 2 to Day 9; read-out: IC50 Cell Survival
# Method: as §3
# [13] = tested on: patient-derived GBM cell line 229; assay: Gliomasphere Cell Number Assay; assay type: cell-based; settings: cell line 229, Recurrent; 50% cell numbers vs DMSO control, Day 2 to Day 9; read-out: IC50 Cell Survival
# Method: as §3
# [14] = tested on: patient-derived GBM cell line 308; assay: Gliomasphere Cell Number Assay; assay type: cell-based; settings: cell line 308, Recurrent, MGMT Unkn/Highly Expressed; 50% cell numbers vs DMSO control, Day 2 to Day 9; read-out: IC50 Cell Survival
# Method: as §3
# [15] = tested on: patient-derived GBM cell line 393; assay: Gliomasphere Cell Number Assay; assay type: cell-based; settings: cell line 393, Primary, MGMT status +; 50% cell numbers vs DMSO control, Day 2 to Day 9; read-out: IC50 Cell Survival
# Method: as §3
# [16] = tested on: patient-derived GBM cell line 217; assay: Gliomasphere Cell Number Assay; assay type: cell-based; settings: cell line 217, Primary; 50% cell numbers vs DMSO control, Day 2 to Day 9; read-out: IC50 Cell Survival
# Method: as §3
compound,measurement,setting,value
"CCN1C(=O)CNc2ncc(-c3ccc(-c4nc[nH]n4)nc3C)nc21 [Compound 1, 1-ethyl-7-(2-methyl-6-(1H-1,2,4-triazol-3-yl)pyridin-3-yl)-3,4-dihydropyrazino[2,3-b]pyrazin-2(1H)-one]",survival (Kaplan-Meier),[1],significantly increased survival
same,inhibition at 0.05 µM,[2]; Cmpd 1 50 nM alone,10.6%
same,inhibition at 0.1 µM,[2]; Cmpd 1 100 nM alone,23.1%
same,inhibition at 0.5 µM,[2]; Cmpd 1 500 nM alone,65.8%
same,inhibition at 0.1 µM,[3],51%
same,IC50,[4],74.5 nM
same,IC50,[5],100 nM
same,IC50,[6],99.6 nM
same,IC50,[7],107 nM
same,IC50,[8],231 nM
same,IC50,[9],165 nM
same,IC50,[10],163 nM
same,IC50,[11],68.7 nM
same,IC50,[12],99.6 nM
same,IC50,[13],115 nM
same,IC50,[14],68.2 nM
same,IC50,[15],178 nM
same,IC50,[16],71.9 nM
